Data taken from patent US20110172305A1, “Endocannabinoids for Enhancing Growth and Development in Infants” (priority 2007, published 2011).

Key:
[1] = Porsolt forced swim test at adulthood; type: in vivo, mouse (ICR strain); settings: treated in infancy, tested at adulthood; FIG. 3A
Excerpt: (§1) At adulthood (3 months of age), mice were subjected to the open field assay for motor activity (ambulation and rearing), to the Porsolt forced swim test for anti-depressant-like effects and to the prepulse-inhibited acoustic startle response (PPI) assay which assesses sensorimotor gating.
Porsolt forced swim test: The forced swimming test was based on previous designs (Harkin et al., 2004; Petit-Demouliere et al., 2005; Treit and Menard, 1998): mice were placed in a 2 liter glass beaker (11 cm diameter) filled with water (24+1° C.) up to […] from the bottom (so that the mouse could not touch the bottom) and 8 cm from the rim (so that the mouse cannot escape). […] Immobility at 9 min was analyzed by a t-test, P<0.05.

[2] = Body weight of pups raised in small or large (malnourished) litters, daily neonatal injections; type: in vivo, mouse (ICR strain)
Protocol: (§2) Using an environmental manipulation technique, within 24 hours of birth, half of each mouse litter (ICR strain) was cross-fostered to the dam of another litter born on the same day. The mouse pups of every two litters were divided up between the 2 dams such that one dam reared 4 pups (‘small litter’) and the other dam raised 18-20 pups (large litter). Pups raised in the large litter were expected to suffer from malnutrition due to the crowded environment. Half of each litter received daily injections of the endocannabinoid 2-arachidonoyl glycerol (2-AG) or THC, the major psychoactive molecule in the Cannabis sativa (marihuana) plant for the first 5 days of life. The doses used were 1 or 5 mg/kg THC or 0.1, 1 or 5 mg/kg 2-AG. Body weights were recorded daily. The body weight of pups from the small and the large litters were analyzed by two-way analysis-of-variance.

[3] = Motor activity (ambulation) in an open field at 3 months of age; type: in vivo, mouse (ICR strain); settings: tested at 3 months of age
Protocol: as §1
Motor activity in an Open field: Mice were placed in a transparent open field (30×40 cm, divided into 20 squares of equal size), measuring horizontal (ambulatory) and vertical activity, for 6 minutes (min), by manually scoring the number of squares crossed (see (Fride and Mechoulam, 1993).
The bottom of the open field was divided into 20 squares of equal size. Activity was assessed as the number of squares crossed.

[4] = Food intake ('milkbands') of pups raised in small or large litters; type: in vivo, mouse (ICR strain); settings: THC 1 or 5 mg/kg, daily injections for the first 5 days of life
Protocol: as §2
On each subsequent day, pups were briefly separated from their mothers for the duration of weighing and scoring of the presence of “milkbands” in their stomachs. (As the stomach area in mouse pups is transparent, due to lack of hair and the thinness of the skin, the amount of milk consumed can be observed as a “milkband”).

[5] = Growth and survival of newborn Spiny wild mice; type: in vivo, Spiny wild mice (acomys cahirinus); settings: 50 mg/kg
Excerpt: FIG. 9A illustrates the relative state of maturation in terms of the growth curve during the first two postnatal weeks in laboratory (ICR strain) mice, compared to Spiny wild mice (acomys cahirinus) which is born at a more advanced stage of development. […] This is similar to the difference in brain maturation predicted by the model designed by Clancy and colleagues (Clancy et al., 2007), i.e., the day of birth of the spiny mouse being equivalent to postnatal day 8 in the laboratory mouse.

[6] = Intracerebral versus subcutaneous injection, pup body weight gain; type: in vivo, mouse (ICR strain); settings: day 1 of birth, FIG. 8A-E
Protocol: Newborn (day 1 of birth) mouse pups (ICR strain) were injected subcutaneously (sc) with SR141716 (SR, 20 or 40 mg/kg), as described previously (Fride, 2004; Fride et al., 2003; Fride et al., 2001). In addition, littermates were injected with SR directly into the brain, at 2 depths (2-3 mm) and at several doses 4.5, 9.0 or 22.5 μg (between 50 and 10-fold lower concentrations than the sc injections).

[7] = Prepulse inhibition (PPI) of the acoustic startle response; type: in vivo, mouse; settings: treated at birth; FIG. 7
Protocol: Prepulse Inhibition (PPI) of the startle reflex: In this experimental model a weak stimulus (70-90 db tone) inhibits the subsequent response to a strong stimulus (120 db tone). Reduced prepulse inhibition of the startle reflex (PPI) is taken as an additional index of the positive symptoms of schizophrenia (Josselyn and Vaccarino, 1998; Swerdlow and Geyer, 1998). PPI was assessed as described previously (Varty et al., 2001). In the model employed, mice were placed in a startle chamber (Hamilton and Kinder, Poway, Calif., USA). A high frequency loudspeaker produces a 65 db background noise and the various acoustic stimuli: 77 and 81 db prepulse; 120 db startle, separated by 100 ms. The startle response of the mouse is transduced and stored by a computer. Sixty-five readings are taken at 1 ms intervals, and the average amplitude is taken as the startle response. Each test session lasts for about 20 min and consists of 10 presentations of each of the six trial types (Prepulse, Prepulse+Pulse, Pulse or no stimulus other than background) separated by 15 s. The amount of prepulse inhibition is calculated as %PPI=[1-(startle response for Prepulse+Pulse)/(startle response for Pulse alone)]×100.

In the case of `CCCCC/C=C\C/C=C\C/C=C\C/C=C\CCCC(=O)OC(CO)CO` [2-AG, 2-arachidonoyl glycerol], the “behavior in the Forced swim test (immobility time)” value [1] is reported as “displayed anti-depressant-like behavior”, the “effect on the growth curve” value ([2]; 0.1 mg/kg (lowest dose), daily injections for the first 5 days of life) is reported as “no effect on the growth curve” and the body weight gain ([2]; 1 mg/kg, daily injections for the first 5 days of life, malnourished (overcrowded) litters, FIG. 1) is reported as “significantly enhanced body weight gain”. The “effect on the growth curve” value ([2]; 5 mg/kg (highest dose), daily injections for the first 5 days of life) was “no effect on the growth curve”, the “body weight at 3 months of age versus control mice from large (malnourished) litter” value ([2]; treated as neonates, large litter, FIG. 2) was “still had elevated body weights” and the “body weight at 3 months of age versus vehicle-treated mice raised in small litters” value ([2]; treated as neonates, overcrowded litter, FIG. 2) was “did not differ significantly”. The “motor activity in open field (number of squares crossed)” value ([3]; 2-AG at birth, FIG. 3B) was “did not differ from that of controls”.

In the case of `CCCCCc1cc(O)c2c(c1)OC(C)(C)[C@@H]1CCC(C)=C[C@@H]21` [THC, Δ^9-tetrahydrocannabinol], the “effect on the body weight curve” value ([2]; THC 1 or 5 mg/kg, daily injections for the first 5 days of life) is reported as “Neither of the doses of THC had an effect” and the “effect on food intake ('milkbands')” value [4] is reported as “Neither of the doses of THC had an effect”.

In the case of `Cc1c(C(=O)NN2CCCCC2)nn(-c2ccc(Cl)cc2Cl)c1-c1ccc(Cl)cc1` [Rimonabant], the “growth (body weight)” value ([5]; FIG. 9B, P<0.0001) is reported as “highly significant delay in growth”, the mortality rate ([5]; FIG. 9C, P<0.01 versus controls) is reported as 60% and the “effect on pup growth” value ([6]; injected directly into the brain, 2-3 mm depth, 4.5, 9.0 or 22.5 μg) is reported as “none of the centrally injected regimens had any effect on pup growth”. For the same compound, the body weight gain ([6]; s.c. 20 or 40 mg/kg) was “significantly retarded body weight gain”, the “motor activity in open field (number of squares crossed)” value ([3]; rimonabant at birth, ICR strain, FIG. 6, P<0.001) was “hyperactive” and the “sensorimotor gating, prepulse inhibition of acoustic startle response (% PPI) versus vehicle control” value [7] was “significantly lower”.
